Source: the CombiSolv-Exp solvation set (Vermeire and Green 2021)

Assay: solvent given as SMILES
[1] = in CCCCCCCCC=CCCCCCCCC(=O)OCC(COC(=O)CCCCCCCC=CCCCCCCCC)OC(=O)CCCCCCCC=CCCCCCCCC

In the case of `CCCCCCCCC`, the “solvation free energy, 298 K” value (in Brc1ccccc1) is reported as -5.75 kcal/mol, the “solvation free energy, 298 K” value (in C1CCCCC1) is reported as -6.23 kcal/mol and the “solvation free energy, 298 K” value (in C1CCOC1) is reported as -5.94 kcal/mol. For the same molecule, the “solvation free energy, 298 K” value (in C1COCCO1) was -5.1 kcal/mol, the “solvation free energy, 298 K” value (in C=CCCCC) was -6.1 kcal/mol and the “solvation free energy, 298 K” value (in C=CCCCCCC) was -5.95 kcal/mol. For the same molecule, the “solvation free energy, 298 K” value (in C=CCCCCCCCC) was -5.89 kcal/mol, the “solvation free energy, 298 K” value (in CC1COC(=O)O1) was -3.44 kcal/mol and the “solvation free energy, 298 K” value (in CC#N) was -4.12 kcal/mol. The “solvation free energy, 298 K” value (in CC(=O)N(C)C) was -4.53 kcal/mol, the “solvation free energy, 298 K” value (in CC(=O)O) was -4.5 kcal/mol and the “solvation free energy, 298 K” value (in CC(=O)c1ccccc1) was -4.92 kcal/mol. For the same molecule, the “solvation free energy, 298 K” value (in CC(C)=O) was -4.99 kcal/mol, the “solvation free energy, 298 K” value (in CC(C)CC(C)(C)C) was -5.95 kcal/mol and the “solvation free energy, 298 K” value (in CC(C)CCCC(C)CCCC(C)CCCCC(C)CCCC(C)CCCC(C)C) was -5.5 kcal/mol. The “solvation free energy, 298 K” value (in CC(C)CCO) was -5.21 kcal/mol, the “solvation free energy, 298 K” value (in CC(C)O) was -5.01 kcal/mol and the “solvation free energy, 298 K” value (in CC(C)OC(C)C) was -5.88 kcal/mol. The “solvation free energy, 298 K” value (in CCBr) was -5.96 kcal/mol, the “solvation free energy, 298 K” value (in CCC#N) was -4.68 kcal/mol and the “solvation free energy, 298 K” value (in CCC(C)=O) was -5.31 kcal/mol. For the same molecule, the “solvation free energy, 298 K” value (in CCCC#N) was -5.01 kcal/mol, the “solvation free energy, 298 K” value (in CCCC(=O)OCC) was -5.57 kcal/mol and the “solvation free energy, 298 K” value (in CCCC(C)=O) was -5.41 kcal/mol. The “solvation free energy, 298 K” value (in CCCCC) was -6.12 kcal/mol, the “solvation free energy, 298 K” value (in CCCCCC) was -6.12 kcal/mol and the “solvation free energy, 298 K” value (in CCCCCC(C)=O) was -5.45 kcal/mol. The “solvation free energy, 298 K” value (in CCCCCCC) was -6.06 kcal/mol, the “solvation free energy, 298 K” value (in CCCCCCCC) was -5.98 kcal/mol and the “solvation free energy, 298 K” value (in CCCCCCCCCC) was -5.88 kcal/mol. For the same molecule, the “solvation free energy, 298 K” value (in CCCCCCCCCCCC) was -5.79 kcal/mol, the “solvation free energy, 298 K” value (in CCCCCCCCCCCCCCCC) was -5.68 kcal/mol and the “solvation free energy, 298 K” value (in CCCCCCCCO) was -5.29 kcal/mol. For the same molecule, the “solvation free energy, 298 K” value (in CCCCCCOC(C)=O) was -5.56 kcal/mol, the “solvation free energy, 298 K” value (in CCCCO) was -5.09 kcal/mol and the “solvation free energy, 298 K” value (in CCCCOC(C)=O) was -5.48 kcal/mol. For the same molecule, the “solvation free energy, 298 K” value (in CCCCOCCCC) was -5.95 kcal/mol, the “solvation free energy, 298 K” value (in CCCO) was -4.94 kcal/mol and the “solvation free energy, 298 K” value (in CCN(CC)CC) was -6.06 kcal/mol. For the same molecule, the “solvation free energy, 298 K” value (in CCO) was -4.84 kcal/mol, the “solvation free energy, 298 K” value (in CCOC(=O)c1ccccc1C(=O)OCC) was -4.53 kcal/mol and the “solvation free energy, 298 K” value (in CCOC(C)=O) was -5.32 kcal/mol. The “solvation free energy, 298 K” value (in CCOCC) was -5.97 kcal/mol, the “solvation free energy, 298 K” value (in CCOCCOCCOCC) was -5.25 kcal/mol and the “solvation free energy, 298 K” value (in CCOc1ccccc1) was -5.42 kcal/mol. For the same molecule, the “solvation free energy, 298 K” value (in CN1CCCC1=O) was -4.3 kcal/mol, the “solvation free energy, 298 K” value (in CN(C)C=O) was -4.3 kcal/mol and the “solvation free energy, 298 K” value (in CN(C)P(=O)(N(C)C)N(C)C) was -4.86 kcal/mol. For the same molecule, the “solvation free energy, 298 K” value (in CNC=O) was -3.82 kcal/mol, the “solvation free energy, 298 K” value (in CO) was -4.4 kcal/mol and the “solvation free energy, 298 K” value (in COC(C)=O) was -5.07 kcal/mol. For the same molecule, the “solvation free energy, 298 K” value (in COCCO) was -4.28 kcal/mol, the “solvation free energy, 298 K” value (in COc1ccccc1) was -5.35 kcal/mol and the “solvation free energy, 298 K” value (in CS(C)=O) was -3.24 kcal/mol. For the same molecule, the “solvation free energy, 298 K” value (in Cc1ccc(C)cc1) was -5.93 kcal/mol, the “solvation free energy, 298 K” value (in Cc1ccccc1) was -5.95 kcal/mol and the “solvation free energy, 298 K” value (in Cc1ccccn1) was -5.45 kcal/mol. The “solvation free energy, 298 K” value (in ClC(Cl)(Cl)Cl) was -6.2 kcal/mol, the “solvation free energy, 298 K” value (in ClC(Cl)Cl) was -6.04 kcal/mol and the “solvation free energy, 298 K” value (in ClCCCl) was -5.32 kcal/mol. The “solvation free energy, 298 K” value (in ClCCl) was -5.72 kcal/mol, the “solvation free energy, 298 K” value (in Clc1ccccc1) was -5.97 kcal/mol and the “solvation free energy, 298 K” value (in FC(F)(F)C(F)(F)C(F)(F)C(F)(F)C(F)(F)C(F)(F)C(F)(F)C(F)(F)F) was -3.92 kcal/mol. The “solvation free energy, 298 K” value (in FC(F)(F)C(F)(F)C(F)(F)C(F)(F)C(F)(F)C(F)(F)F) was -3.96 kcal/mol, the “solvation free energy, 298 K” value (in Fc1ccccc1) was -5.76 kcal/mol and the “solvation free energy, 298 K” value (in ICI) was -3.73 kcal/mol. For the same molecule, the “solvation free energy, 298 K” value (in N#CCCCCC#N) was -3.46 kcal/mol, the “solvation free energy, 298 K” value (in N#Cc1ccccc1) was -4.97 kcal/mol and the “solvation free energy, 298 K” value (in NC=O) was -1.66 kcal/mol. For the same molecule, the “solvation free energy, 298 K” value (in NCCO) was -2.24 kcal/mol, the “solvation free energy, 298 K” value (in Nc1ccccc1) was -4.09 kcal/mol and the “solvation free energy, 298 K” value (in O) was 2.98 kcal/mol. For the same molecule, the “solvation free energy, 298 K” value (in O=C1CCCCC1) was -5.24 kcal/mol, the “solvation free energy, 298 K” value (in O=C1CCCO1) was -3.71 kcal/mol and the “solvation free energy, 298 K” value (in O=CN1CCOCC1) was -3.47 kcal/mol. For the same molecule, the “solvation free energy, 298 K” value (in OCCO) was -2.03 kcal/mol, the “solvation free energy, 298 K” value (in OCCOCCO) was -2.76 kcal/mol and the “solvation free energy, 298 K” value (in OCCOCCOCCO) was -2.92 kcal/mol. The “solvation free energy, 298 K” value (in OCCOCCOCCOCCO) was -3.13 kcal/mol, the “solvation free energy, 298 K” value (in OCc1ccccc1) was -4.36 kcal/mol and the “solvation free energy, 298 K” value (in S=C=S) was -6.17 kcal/mol. For the same molecule, the “solvation free energy, 298 K” value (in c1ccccc1) was -5.89 kcal/mol and the “solvation free energy, 298 K” value (in c1ccncc1) was -5.13 kcal/mol.
With `Cc1cccc(N)c1` the “solvation free energy, 298 K” value (in O) was -5.69 kcal/mol.
With `Oc1cccc2cccnc12` the “solvation free energy, 298 K” value (in O) was -6.06 kcal/mol.
In the case of `CCCCC(C)=O`, the “solvation free energy, 298 K” value (in C1COCCO1) is reported as -5.69 kcal/mol, the “solvation free energy, 298 K” value (in CC(C)CC(C)(C)C) is reported as -4.72 kcal/mol and the “solvation free energy, 298 K” value (in CCCCCC) is reported as -4.68 kcal/mol. For the same molecule, the “solvation free energy, 298 K” value (in CCCCCCC) was -4.55 kcal/mol, the “solvation free energy, 298 K” value (in CCCCCCCC) was -4.6 kcal/mol and the “solvation free energy, 298 K” value (in CCCCCCCCCC) was -4.61 kcal/mol. For the same molecule, the “solvation free energy, 298 K” value (in CCCCCCCCCCCCCCCC) was -4.39 kcal/mol, the “solvation free energy, 298 K” value (in CCCCCCCCO) was -5.02 kcal/mol and the “solvation free energy, 298 K” value (in CO) was -5.21 kcal/mol. For the same molecule, the “solvation free energy, 298 K” value (in ClC(Cl)(Cl)Cl) was -5.36 kcal/mol, the “solvation free energy, 298 K” value (in NC=O) was -4.46 kcal/mol and the “solvation free energy, 298 K” value (in O) was -3.3 kcal/mol. The “solvation free energy, 298 K” value (in [2H]O[2H]) was -3.24 kcal/mol.
For `ClC(Cl)(Cl)C(Cl)(Cl)Cl`, the “solvation free energy, 298 K” value [1] was -5.42 kcal/mol and the “solvation free energy, 298 K” value (in CCCCCCCCO) was -6.1 kcal/mol.
With `CC=C(C)C=CC=C(C)C` the “solvation free energy, 298 K” value (in O) was -0.55 kcal/mol.
For `Cc1ccc(C(C)C)cc1`, the “solvation free energy, 298 K” value (in COCCO) was -5.72 kcal/mol, the “solvation free energy, 298 K” value (in CS(C)=O) was -5.55 kcal/mol and the “solvation free energy, 298 K” value (in O) was -0.67 kcal/mol.
In the case of `O=[N+]([O-])c1ccc(Cl)c(Cl)c1Cl`, the “solvation free energy, 298 K” value [1] is reported as -10.1 kcal/mol and the “solvation free energy, 298 K” value (in O) is reported as -4.07 kcal/mol.
